We go through 6 molecules from ChEMBL document CHEMBL1128749, “1-Aminoindan-1,5-dicarboxylic acid: a novel antagonist at phospholipase C-linked metabotropic glutamate receptors” (J Med Chem, 1995).

The IC50 is the concentration that inhibits the measured activity by half. A low value points to inhibition by little substance.

Test [1] has as its target T1, Metabotropic glutamate receptor 2 (Homo sapiens, UniProt Q14416). Put plainly: Ability to inhibit mGluR2-alpha induced cAMP formation was determined at BHK cells at 100 Micro M Concentration; Not effective at the highest concentration tested (100 uM). Format: functional, cell-based, Mesocricetus auratus. For orientation: Cyclic AMP is a second messenger, typically raised through Gs and lowered through Gi signalling.

Test [2] addresses T2, Metabotropic glutamate receptor 4 (Homo sapiens, UniProt Q14833). In words: Ability to inhibit mGluR4-alpha induced cAMP formation was determined at BHK cells at 100 Micro M Concentration; Not effective at the highest concentration tested (100 uM). The format is functional, cell-based, Mesocricetus auratus.
Test [3] has as its target T3, Metabotropic glutamate receptor 1 (Homo sapiens, UniProt Q13255). In words: Ability to inhibit mGluR1-alpha-mediated PI (phospho inositol) hydrolysis was determined at BHK cells at 100 Micro M Concentration; Not effective at the highest concentration tested (100 uM). The format is functional, cell-based, Mesocricetus auratus.
The target of test [4] is T1, Metabotropic glutamate receptor 2. In words: Ability to inhibit mGluR2-alpha induced cAMP formation was determined at BHK cells at 100 Micro M Concentration. The format is functional, cell-based, Mesocricetus auratus.
The target in test [5] is T2, Metabotropic glutamate receptor 4. In words: Ability to inhibit mGluR4-alpha induced cAMP formation was determined at BHK cells at 100 Micro M Concentration. The format is functional, cell-based, Mesocricetus auratus.
Test [6] deals with T3, Metabotropic glutamate receptor 1. Put plainly: Ability to inhibit mGluR1-alpha-mediated PI (phospho inositol) hydrolysis was determined at BHK cells at 100 Micro M Concentration. The format is functional, cell-based, Mesocricetus auratus.
Test [7] deals with T1, Metabotropic glutamate receptor 2. In words: Ability to inhibit mGluR2-alpha induced cAMP formation was determined at BHK cells at 100 Micro M Concentration; Not effective at the highest concentration tested (100 µM).

T1 sequence (Q14416 whole entry): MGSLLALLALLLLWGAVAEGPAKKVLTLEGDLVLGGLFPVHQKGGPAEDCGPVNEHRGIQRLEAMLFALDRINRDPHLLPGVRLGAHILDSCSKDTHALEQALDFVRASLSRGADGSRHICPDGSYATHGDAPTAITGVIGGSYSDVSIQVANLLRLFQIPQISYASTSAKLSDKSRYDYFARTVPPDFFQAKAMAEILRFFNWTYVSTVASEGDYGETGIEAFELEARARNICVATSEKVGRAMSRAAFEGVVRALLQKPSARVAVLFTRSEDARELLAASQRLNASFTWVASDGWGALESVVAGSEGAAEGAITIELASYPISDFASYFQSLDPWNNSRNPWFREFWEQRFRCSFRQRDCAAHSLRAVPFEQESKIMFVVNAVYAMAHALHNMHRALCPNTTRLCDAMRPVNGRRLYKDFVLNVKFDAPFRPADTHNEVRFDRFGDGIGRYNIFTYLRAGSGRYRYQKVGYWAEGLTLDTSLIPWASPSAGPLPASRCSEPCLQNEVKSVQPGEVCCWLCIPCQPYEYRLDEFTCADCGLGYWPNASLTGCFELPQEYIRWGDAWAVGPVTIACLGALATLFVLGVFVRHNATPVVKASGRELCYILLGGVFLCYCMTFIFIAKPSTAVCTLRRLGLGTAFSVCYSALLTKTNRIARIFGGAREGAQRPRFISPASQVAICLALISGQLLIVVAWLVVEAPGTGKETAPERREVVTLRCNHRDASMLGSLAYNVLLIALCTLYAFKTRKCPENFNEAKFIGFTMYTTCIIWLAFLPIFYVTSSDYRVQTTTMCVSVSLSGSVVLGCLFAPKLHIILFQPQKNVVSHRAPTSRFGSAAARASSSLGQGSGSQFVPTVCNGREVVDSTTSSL
T2 sequence (Q14833 whole entry): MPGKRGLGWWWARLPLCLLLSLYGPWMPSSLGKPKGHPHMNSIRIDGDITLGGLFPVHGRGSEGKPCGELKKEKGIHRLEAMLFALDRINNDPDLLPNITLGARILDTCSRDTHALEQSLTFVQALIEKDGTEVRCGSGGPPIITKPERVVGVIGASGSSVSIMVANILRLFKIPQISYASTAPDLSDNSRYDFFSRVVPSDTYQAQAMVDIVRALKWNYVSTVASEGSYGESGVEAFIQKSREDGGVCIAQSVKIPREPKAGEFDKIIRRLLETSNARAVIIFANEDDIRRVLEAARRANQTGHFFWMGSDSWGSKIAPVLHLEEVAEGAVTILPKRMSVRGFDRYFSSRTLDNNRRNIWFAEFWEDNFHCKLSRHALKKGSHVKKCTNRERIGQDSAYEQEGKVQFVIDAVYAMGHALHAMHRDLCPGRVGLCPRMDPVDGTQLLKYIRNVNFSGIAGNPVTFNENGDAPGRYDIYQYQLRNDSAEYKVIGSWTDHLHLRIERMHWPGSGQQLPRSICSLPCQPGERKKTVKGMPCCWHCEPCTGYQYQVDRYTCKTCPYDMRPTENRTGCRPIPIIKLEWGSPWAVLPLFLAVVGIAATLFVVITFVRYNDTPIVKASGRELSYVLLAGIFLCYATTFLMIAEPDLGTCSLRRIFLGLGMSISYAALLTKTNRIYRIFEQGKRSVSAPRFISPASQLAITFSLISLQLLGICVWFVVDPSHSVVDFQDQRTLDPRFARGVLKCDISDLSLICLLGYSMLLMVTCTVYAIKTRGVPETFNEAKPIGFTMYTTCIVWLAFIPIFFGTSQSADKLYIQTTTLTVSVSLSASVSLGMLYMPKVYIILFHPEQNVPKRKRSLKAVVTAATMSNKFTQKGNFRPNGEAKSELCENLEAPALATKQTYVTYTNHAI
T3 sequence (Q13255 whole entry): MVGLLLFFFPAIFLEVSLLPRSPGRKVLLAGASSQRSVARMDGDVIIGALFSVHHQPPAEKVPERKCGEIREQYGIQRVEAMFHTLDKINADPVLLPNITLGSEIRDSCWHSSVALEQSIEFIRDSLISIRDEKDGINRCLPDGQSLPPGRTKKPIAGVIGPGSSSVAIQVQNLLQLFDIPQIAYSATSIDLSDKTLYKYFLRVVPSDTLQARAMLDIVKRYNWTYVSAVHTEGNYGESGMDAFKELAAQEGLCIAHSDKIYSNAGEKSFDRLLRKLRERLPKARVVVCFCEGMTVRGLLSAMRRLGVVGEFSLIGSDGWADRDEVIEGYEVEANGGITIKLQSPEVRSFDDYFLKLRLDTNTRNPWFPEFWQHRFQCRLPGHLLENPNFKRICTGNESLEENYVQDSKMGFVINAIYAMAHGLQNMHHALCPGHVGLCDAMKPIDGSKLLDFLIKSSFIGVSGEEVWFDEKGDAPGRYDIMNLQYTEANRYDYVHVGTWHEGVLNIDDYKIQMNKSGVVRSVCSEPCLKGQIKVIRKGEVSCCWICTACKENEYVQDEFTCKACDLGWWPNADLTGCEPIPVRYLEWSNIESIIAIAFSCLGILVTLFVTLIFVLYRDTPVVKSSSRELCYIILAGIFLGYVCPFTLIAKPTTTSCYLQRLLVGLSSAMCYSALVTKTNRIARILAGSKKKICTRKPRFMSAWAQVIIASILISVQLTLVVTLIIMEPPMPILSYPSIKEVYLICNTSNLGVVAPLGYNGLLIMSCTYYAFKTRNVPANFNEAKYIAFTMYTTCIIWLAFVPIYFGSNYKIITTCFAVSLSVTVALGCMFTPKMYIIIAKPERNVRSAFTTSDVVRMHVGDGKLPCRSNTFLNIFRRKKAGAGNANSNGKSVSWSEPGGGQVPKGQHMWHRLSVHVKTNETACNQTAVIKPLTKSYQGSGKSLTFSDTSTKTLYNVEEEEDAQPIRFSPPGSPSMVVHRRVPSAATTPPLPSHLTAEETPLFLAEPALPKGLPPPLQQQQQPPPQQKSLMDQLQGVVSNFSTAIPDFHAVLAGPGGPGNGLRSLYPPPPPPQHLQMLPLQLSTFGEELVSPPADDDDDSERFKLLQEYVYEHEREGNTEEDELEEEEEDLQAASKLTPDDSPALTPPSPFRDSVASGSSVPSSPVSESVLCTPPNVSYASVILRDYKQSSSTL

As for `NC1(C(=O)O)CCc2c(C(=O)O)cccc21` (stereo not drawn), the IC50 entry in test [1], in test [2] and in test [3] was “No effect” throughout.

Consider `CC(N)(C(=O)O)c1ccc(C(=O)O)cc1` (stereo not drawn), for which the IC50 in test [4] was 340 µM; in test [5] it was greater than 1000 µM; in test [6], 155 µM.

With `NC1(C(=O)O)CCc2cc(C(=O)O)ccc21` (stereo not drawn), the IC50 entry in test [1] was “No effect”; in test [2], “No effect”; in test [6], 7 µM.

Turning to `NC(C(=O)O)c1ccc(C(=O)O)cc1` (stereo not drawn), the IC50 in test [4] was 577 µM; in test [5], greater than 1000 µM; in test [6], 65 µM.

On to `NC1(C(=O)O)CCc2ccc(C(=O)O)cc21` (stereo not drawn), for which the IC50 entry in test [2], in test [3] and in test [7] was “No effect” each time.

On to `NC(C(=O)O)c1ccc(C(=O)O)c(O)c1` (stereo not drawn), for which the IC50 in test [4] was 48 µM; in test [5] it was greater than 1000 µM; in test [6], 40 µM.
